Test results: ChEMBL document CHEMBL4837184, “Antibacterial p-Terphenyl with a Rare 2,2'-Bithiazole Substructure and Related Compounds Isolated from the Marine-Derived Actinomycete Nocardiopsis sp. HDN154086” (J Nat Prod, 2021)
Converted amounts (≈) assume the structure as drawn.

Columns and labels:
MDA-MB-231 = experiment: Cytotoxicity against human MDA-MB-231 cells assessed as cell growth inhibition at 30 uM by SRB assay relative to control; assay type: functional; conditions: read-out: GI
[1] = Cytotoxicity against human L02 cells assessed as cell growth inhibition at 30 uM by SRB assay relative to control; assay type: cell-based; conditions: read-out: GI
K562 = experiment: Cytotoxicity against human K562 cells assessed as cell growth inhibition at 30 uM by MTT assay relative to control; assay type: functional; conditions: read-out: GI
ASPC1 = experiment: Cytotoxicity against human ASPC1 cells assessed as cell growth inhibition at 30 uM by SRB assay relative to control; assay type: functional; conditions: read-out: GI
Proteus sp. = experiment: Antibacterial activity against Proteus sp. assessed as reduction in bacterial growth; assay type: functional; conditions: Proteus sp. (in: enterobacteria); time 24 hrs
Bacillus cereus = experiment: Antibacterial activity against Bacillus cereus assessed as reduction in bacterial growth; assay type: functional; conditions: time 24 hrs
Bacillus subtilis = experiment: Antibacterial activity against Bacillus subtilis assessed as reduction in bacterial growth; assay type: functional; conditions: time 24 hrs
Staphylococcus aureus [2] = experiment: Antibacterial activity against methicillin-resistant Staphylococcus aureus assessed as reduction in bacterial growth; assay type: functional; conditions: time 24 hrs
Mycolicibacterium phlei = experiment: Antibacterial activity against Mycobacterium phlei assessed as reduction in bacterial growth; assay type: functional; conditions: time 24 hrs
Escherichia coli = experiment: Antibacterial activity against Escherichia coli assessed as reduction in bacterial growth; assay type: functional; conditions: time 24 hrs
Vibrio parahaemolyticus = experiment: Antibacterial activity against Vibrio parahaemolyticus assessed as reduction in bacterial growth; assay type: functional; conditions: time 24 hrs
Staphylococcus aureus [3] = experiment: Potency index, ratio of ciprofloxacin MIC to test compound MIC for methicillin-resistant Staphylococcus aureus; assay type: functional

| Compound | inhibition of growth at 30 µM (MDA-MB-231) [%] | inhibition at 30 µM [1] [%] | inhibition of growth at 30 µM (K562) [%] | inhibition of growth at 30 µM (ASPC1) [%] | MIC (Proteus sp.) [µM] | MIC (Bacillus cereus) [µM] | MIC (Bacillus subtilis) [µM] | MIC (Staphylococcus aureus [2]) [µM] | MIC (Mycolicibacterium phlei) [µM] | MIC (Escherichia coli) [µM] | MIC (Vibrio parahaemolyticus) [µM] | Ratio (Staphylococcus aureus [3]) |
| --- | --- | --- | --- | --- | --- | --- | --- | --- | --- | --- | --- | --- |
| COC1=C(c2ccc(OC)cc2)C(=O)C(SC)=C(c2ccc(OC)cc2)C1=O | < 50 | < 50 | < 50 | < 50 | – | – | – | – | – | – | – | – |
| COC(=O)CSC1=C(c2ccc(OC)cc2)C(=O)C(OC)=C(c2ccc(OC)cc2)C1=O | < 50 | < 50 | < 50 | < 50 | – | – | – | – | – | – | – | – |
| COC1=C(c2ccc(OC)cc2)C(=O)C(N)=C(c2ccc(OC)cc2)C1=O | < 50 | < 50 | < 50 | < 50 | – | – | – | – | – | – | – | – |
| COc1ccc(-c2c(OC)c(O)c(-c3ccc(OC)cc3)c3sc(-c4nccs4)nc23)cc1 | < 50 | < 50 | < 50 | < 50 | 3.1 (≈ 1.48 µg/mL) | 1.5 (≈ 0.715 µg/mL) | 3.1 (≈ 1.48 µg/mL) | > 50 | 6.2 (≈ 2.95 µg/mL) | 3.1 (≈ 1.48 µg/mL) | 6.2 (≈ 2.95 µg/mL) | – |
| COC(=O)CCSC1=C(c2ccc(OC)cc2)C(=O)C(OC)=C(c2ccc(OC)cc2)C1=O | < 50 | < 50 | < 50 | < 50 | 12 (≈ 5.62 µg/mL) | > 50 | 12 (≈ 5.62 µg/mL) | 6.2 (≈ 2.9 µg/mL) | > 50 | > 50 | > 50 | 8 |
| O=C(O)c1cn(C2CC2)c2cc(N3CCNCC3)c(F)cc2c1=O [CIPROFLOXACIN] | – | – | – | – | 1.5 (≈ 0.497 µg/mL) | 1.5 (≈ 0.497 µg/mL) | 0.39 (≈ 0.129 µg/mL) | 50 (≈ 16.6 µg/mL) | 0.78 (≈ 0.258 µg/mL) | 0.78 (≈ 0.258 µg/mL) | 0.39 (≈ 0.129 µg/mL) | – |
